Reference: ChEMBL document CHEMBL4689842, “EUbOPEN Chemogenomics Library wave 1” (2021)

Key:
Assay type in all cases: toxicity, cell-based
[1] = tested on: U2OS; experiment: Incucyte cell viability with U2OS; details: human, 10 µM, compound concentration 10 uM
[2] = tested on: HEK-293T; experiment: Incucyte cell viability with HEK293T; details: human, 10 µM, compound concentration 10 uM
[3] = tested on: Fibroblast; experiment: Incucyte cell viability with human fibroblast; details: 10 µM, compound concentration 10 uM
[4] = 6 h, replicate number 1, timepoint 6 hours
[5] = 12 h, replicate number 1, timepoint 12 hours
[6] = 12 h, replicate number 2, timepoint 12 hours
[7] = 18 h, replicate number 1, timepoint 18 hours
[8] = 24 h, replicate number 1, timepoint 24 hours
[9] = 0 h, replicate number 1, timepoint 0 hours
[10] = 0 h, replicate number 2, timepoint 0 hours
[11] = 6 h, replicate number 2, timepoint 6 hours
[12] = 18 h, replicate number 2, timepoint 18 hours
[13] = 24 h, replicate number 2, timepoint 24 hours
Further: filed as whole numbers so only -1 and 0 and 1 occur.

| SMILES | Growth Rate [1, 4] | Growth Rate [1, 5] | Growth Rate [1, 6] | Growth Rate [1, 7] | Growth Rate [1, 8] | Growth Rate [2, 9] | Growth Rate [2, 10] | Growth Rate [2, 6] | Growth Rate [2, 8] | Growth Rate [3, 9] | Growth Rate [3, 4] | Growth Rate [3, 5] | Growth Rate [3, 7] | Growth Rate [3, 8] | Growth Rate [1, 9] | Growth Rate [1, 11] | Growth Rate [2, 4] | Growth Rate [2, 5] | Growth Rate [2, 7] | Growth Rate [3, 6] | further results |
| --- | --- | --- | --- | --- | --- | --- | --- | --- | --- | --- | --- | --- | --- | --- | --- | --- | --- | --- | --- | --- | --- |
| CNc1nc(-c2ccc3c(N)n[nH]c3c2)cc(N2C[C@@H](C(=O)NC3CCCCC3)CC[C@H]2C)n1 | 1 | 0 | 1 | 0 | 0 | 0 | 1 | 0 | 1 | 0 | 1 | 0 | 0 | 0 |  |  |  |  |  |  | Growth Rate [2, 11]: 0; Growth Rate [2, 12]: 1; Growth Rate [2, 13]: 0 |
| CO[C@@H]1COCC[C@@H]1N[C@@H]1CC[C@@](C(=O)N2CCc3ncc(C(F)(F)F)cc3C2)(C(C)C)C1 [MK-0812] |  | 1 |  | 1 | 1 | 0 |  |  | 1 | 0 | 1 | 1 | 1 | 1 | 0 | 0 | 1 | 1 | 1 |  | Growth Rate [2, 11]: 0; Growth Rate [3, 10]: 1; Growth Rate [3, 11]: 0; Growth Rate [3, 12]: 0; Growth Rate [3, 13]: 0 |
| CC(C)Oc1ccc(-c2nn([C@@H](C)c3oc4ccc(F)cc4c(=O)c3-c3cccc(F)c3)c3ncnc(N)c23)cc1F [UMBRALISIB] | 0 | 0 | 1 | 0 | 0 | 1 | 0 |  | 0 |  | 1 | 1 | 1 | 1 | 0 | 1 | 0 | 0 | 0 | 0 | Growth Rate [1, 12]: 1; Growth Rate [1, 13]: 1; Growth Rate [3, 11]: 0 |
| CO[C@H]1/C=C/O[C@@]2(C)Oc3c(C)c(O)c4c(O)c(c(/C=N/N5CCN(C)CC5)c(O)c4c3C2=O)NC(=O)/C(C)=C\C=C\[C@H](C)[C@H](O)[C@@H](C)[C@@H](O)[C@@H](C)[C@H](OC(C)=O)[C@@H]1C [RIFAMPIN] |  | 1 |  | 1 | 0 | 0 |  |  | 1 | 0 | 0 | 0 | 0 | 0 | 0 | 1 | 1 | 1 | 1 |  | Growth Rate [1, 13]: 1 |
| FC(F)(F)c1c(N2CCC(c3ccccc3)CC2)ccn2c(CC3CC3)nnc12 | 0 | 0 | 1 | 0 | 0 |  | 0 |  | 0 | 0 | 1 | 1 | 1 | 0 |  | 1 | 0 | 0 | 0 |  | Growth Rate [1, 10]: 0; Growth Rate [1, 12]: 1; Growth Rate [1, 13]: 1; Growth Rate [3, 12]: 0 |
| CC1=C(C#N)C(c2ccc3c(c2)c(NC(=O)c2ccccc2C)nn3C)C(C#N)=C(C)N1 [BAY-974] | 1 | 1 | 0 | 1 | 1 | 0 | 1 |  |  |  | 1 | 1 | 1 | 1 |  | 0 |  |  |  |  | Growth Rate [1, 10]: 0; Growth Rate [2, 13]: 1; Growth Rate [3, 10]: 0 |
| CS(=O)(=O)c1cc(C2(NC(=O)c3cncc4c3cnn4-c3ccc(F)cc3)CC2)ccn1 [BI 639667] |  | 1 | 0 | 0 | 1 | 0 |  | 0 | 1 | 0 | 1 | 1 | 0 | 0 | 0 | 1 | 1 | 1 | 1 | 0 | Growth Rate [1, 10]: 1; Growth Rate [1, 12]: 1; Growth Rate [2, 11]: 0; Growth Rate [3, 11]: 0 |
| Cc1cc(NC(=O)Nc2ccc(N(C)C)cc2)c2cc(F)cc(F)c2n1 | 0 | 0 | 1 | 0 | 0 | 0 |  |  | 0 | 1 | 0 | 1 | 1 | 1 |  |  | 0 | 0 | 0 |  | Growth Rate [1, 10]: 0 |
| CN(C(=O)Cc1ccc(Cl)c(Cl)c1)C(CN1CCCC1)c1cccc(OCC(=O)O)c1.Cl (stereo not given) |  | 0 | 1 | 0 | 1 | 0 |  | 0 | 1 | 0 | 0 | 0 | 0 | 0 | 0 | 1 | 1 | 1 | 1 | 1 | Growth Rate [1, 12]: 1; Growth Rate [2, 11]: 0; Growth Rate [2, 13]: 0 |
| CNc1cc2[nH]c(=O)n(-c3ccc(NC(=O)NS(=O)(=O)c4ccc(Cl)s4)cc3)c(=O)c2cc1F [ELINOGREL] | 0 | 0 | 1 | 0 | 0 | 1 | 0 | 1 | 0 | 0 |  | 1 | 1 | 1 | 1 |  | 0 | 0 | 0 | 0 | Growth Rate [1, 12]: 1; Growth Rate [1, 13]: 1; Growth Rate [2, 12]: 1; Growth Rate [2, 13]: 1; Growth Rate [3, 10]: 1; Growth Rate [3, 11]: 0; Growth Rate [3, 12]: 0; Growth Rate [3, 13]: 0 |
| CN(C)C(=O)Cn1cc(-c2nc(C3(c4ccc(-c5cnc(N)nc5)cc4)CC3)no2)cn1 [BI 0153] | 0 | 0 |  | 0 | 0 |  | 1 | 1 | 0 | 1 | 0 | 0 | 0 | 0 | 0 |  | 0 | 0 | 0 | 1 | Growth Rate [1, 13]: 1; Growth Rate [2, 11]: 1; Growth Rate [2, 13]: 1; Growth Rate [3, 10]: 0; Growth Rate [3, 13]: 1 |
| CC1(C)CNc2cc(NC(=O)c3cccnc3NCc3ccncc3)ccc21.O=P(O)(O)O.O=P(O)(O)O [MOTESANIB DIPHOSPHATE] | 1 | 1 |  | 1 | 1 | 0 |  |  |  | 0 |  | 1 | 1 | 1 | 0 | 0 |  |  |  | 0 | Growth Rate [1, 10]: 1; Growth Rate [1, 13]: 0; Growth Rate [3, 11]: 0; Growth Rate [3, 12]: 0; Growth Rate [3, 13]: 0 |
| COc1ccccc1C(=O)Nc1cc2c(cc1N1CCCC1)n(C)c(=O)n2C |  |  |  |  |  | 0 | 1 |  | 1 | 0 | 1 | 1 | 1 | 1 | 0 |  | 0 | 1 | 1 | 0 | Growth Rate [3, 11]: 0 |
| O=C(O)CC1CCC2(CC1)CCN(c1cc(OC(F)(F)F)ccc1Cl)CC2 |  | 1 |  | 1 | 1 | 0 |  | 1 | 0 | 0 | 1 |  | 1 | 1 | 1 | 1 | 1 | 0 | 0 |  | Growth Rate [1, 10]: 0; Growth Rate [2, 12]: 1; Growth Rate [2, 13]: 1 |
